Data: PubChem BioAssay (NCI)
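Cells were grown in 96-well plates and exposed to each compound for 48 hours at five concentrations; endpoints were interpolated linearly between bracketing concentrations, or set to the highest concentration if not reached. GI50 marks 50% less growth. TGI: total growth inhibition.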

Key:
Test in all cases: NCI-60 cell line screen, 48 h
[1] = system: NCI-H460 lung
[2] = system: SR leukemia
[3] = system: BT-549 breast
[4] = system: A498 renal
[5] = system: LOX IMVI melanoma
[6] = system: SK-MEL-28 melanoma
[7] = system: COLO 205 colon
[8] = system: SK-OV-3 ovarian
[9] = system: KM12 colon
[10] = system: SF-268 CNS
[11] = system: M14 melanoma
[12] = system: HOP-62 NSCLC
[13] = system: HT29 colon
[14] = system: NCI-H226 lung
[15] = system: 786-0 renal
[16] = system: NCI-H23 lung
[17] = system: HCC-2998 colon
[18] = system: UACC-257 melanoma
[19] = system: UO-31 renal
[20] = system: OVCAR-5 ovarian
[21] = system: A549 NSCLC
[22] = system: MALME-3M melanoma
[23] = system: MCF7 breast
[24] = system: RPMI-8226 leukemia
[25] = system: K-562 leukemia
[26] = system: SK-MEL-5 melanoma
[27] = system: HCT-116 colon
[28] = system: SK-MEL-2 melanoma
[29] = system: HS 578T breast
[30] = system: ACHN renal
[31] = system: CAKI-1 renal
[32] = system: SNB-19 CNS
[33] = system: UACC-62 melanoma
[34] = system: SW-620 colon
[35] = system: SF-539 CNS
[36] = system: RXF 393 renal
[37] = system: TK-10 renal
[38] = system: HCT-15 colon
[39] = system: U251 CNS
[40] = system: NCI/ADR-RES ovarian
[41] = system: MDA-MB-435
[42] = system: HL-60(TB) leukemia
[43] = system: DU-145 prostate
[44] = system: HOP-92 NSCLC
[45] = system: T-47D breast
[46] = system: MDA-MB-231 breast
[47] = system: OVCAR-8 ovarian
[48] = system: SF-295 CNS
[49] = system: SN12C renal
[50] = system: MOLT-4 leukemia
[51] = system: NCI-H522 lung
[52] = system: SNB-75 CNS
[53] = system: PC-3 prostate
[54] = system: CCRF-CEM leukemia
[55] = system: EKVX NSCLC
[56] = system: OVCAR-4 ovarian
[57] = system: IGROV1 ovarian
[58] = system: OVCAR-3 ovarian

`O=C(Nc1ncc(Cc2ccccc2)s1)c1sc2ccccc2c1Cl` showed a GI50 [1] of 253 nM, a TGI [1] of 18400 nM and a GI50 [2] of 522 nM. It also gave a TGI [2] of over 100000 nM, a GI50 [3] of 2210 nM and a TGI [3] of 40000 nM. It also gave a GI50 [4] of 286 nM, a TGI [4] of 5590 nM and a GI50 [5] of 1070 nM. It also gave a TGI [5] of over 61800 nM, a GI50 [6] of 2180 nM and a TGI [6] of over 80400 nM. The GI50 [7] was 2160 nM, the TGI [7] was over 100000 nM and the GI50 [8] was 2770 nM. For the same molecule, the TGI [8] was 93700 nM, the GI50 [9] was 68.4 nM and the TGI [9] was 29000 nM. It also gave a GI50 [10] of 1370 nM, a TGI [10] of over 100000 nM and a GI50 [11] of 448 nM. It also gave a TGI [11] of 32200 nM, a GI50 [12] of 1230 nM and a TGI [12] of over 62400 nM. The GI50 [13] was 449 nM, the TGI [13] was over 63100 nM and the GI50 [14] was 2200 nM. The TGI [14] was over 46600 nM, the GI50 [15] was 1320 nM and the TGI [15] was 40100 nM. The GI50 [16] was 2250 nM, the TGI [16] was over 61600 nM and the GI50 [17] was 552 nM. The TGI [17] was 12300 nM, the GI50 [18] was 1930 nM and the TGI [18] was over 66500 nM. The GI50 [19] was 1410 nM, the TGI [19] was over 82300 nM and the GI50 [20] was 2210 nM. It also gave a TGI [20] of 64200 nM, a GI50 [21] of 853 nM and a TGI [21] of over 50400 nM. For the same molecule, the GI50 [22] was 809 nM, the TGI [22] was 24300 nM and the GI50 [23] was 37 nM. It also gave a TGI [23] of over 100000 nM, a GI50 [24] of 1330 nM and a TGI [24] of over 100000 nM. The GI50 [25] was 434 nM, the TGI [25] was over 100000 nM and the GI50 [26] was 63.4 nM. It also gave a TGI [26] of 691 nM, a GI50 [27] of 469 nM and a TGI [27] of over 76600 nM. It also gave a GI50 [28] of 534 nM, a TGI [28] of over 64400 nM and a GI50 [29] of 537 nM. It also gave a TGI [29] of 29900 nM, a GI50 [30] of 496 nM and a TGI [30] of 48600 nM. It also gave a GI50 [31] of 574 nM, a TGI [31] of 24500 nM and a GI50 [32] of 777 nM. For the same molecule, the TGI [32] was 59900 nM, the GI50 [33] was 147 nM and the TGI [33] was 17800 nM. It also gave a GI50 [34] of 476 nM, a TGI [34] of over 100000 nM and a GI50 [35] of 497 nM. For the same molecule, the TGI [35] was 5230 nM, the GI50 [36] was 665 nM and the TGI [36] was 10600 nM. It also gave a GI50 [37] of 4010 nM, a TGI [37] of 69100 nM and a GI50 [38] of 44.9 nM. The TGI [38] was over 100000 nM, the GI50 [39] was 593 nM and the TGI [39] was 26000 nM. For the same molecule, the GI50 [40] was 573 nM, the TGI [40] was 35100 nM and the GI50 [41] was 250 nM. For the same molecule, the TGI [41] was 805 nM, the GI50 [42] was 375 nM and the TGI [42] was over 100000 nM. It also gave a GI50 [43] of 2800 nM, a TGI [43] of 36500 nM and a GI50 [44] of 1230 nM. The TGI [44] was 45300 nM, the GI50 [45] was 71.3 nM and the TGI [45] was over 100000 nM. For the same molecule, the GI50 [46] was 1210 nM, the TGI [46] was 19300 nM and the GI50 [47] was 2540 nM. It also gave a TGI [47] of over 100000 nM, a GI50 [48] of 753 nM and a TGI [48] of 19600 nM. The GI50 [49] was 1240 nM, the TGI [49] was over 100000 nM and the GI50 [50] was 680 nM. For the same molecule, the TGI [50] was over 100000 nM, the GI50 [51] was 739 nM and the TGI [51] was 15800 nM. For the same molecule, the GI50 [52] was 368 nM, the TGI [52] was 12900 nM and the GI50 [53] was 948 nM. The TGI [53] was over 60400 nM, the GI50 [54] was 593 nM and the TGI [54] was over 100000 nM. For the same molecule, the GI50 [55] was 969 nM, the TGI [55] was over 100000 nM and the GI50 [56] was 3320 nM. It also gave a TGI [56] of 79400 nM, a GI50 [57] of 903 nM and a TGI [57] of 61500 nM. The GI50 [58] was 523 nM and the TGI [58] was 14400 nM.
